Structures can show the parent of a compound that is named as a salt.
Test system: Neisseria gonorrhoeae
Test: EC50 determination: plate-based broth growth assay (absorbance at 600 nm) of Neisseria gonorrhoeae
Assay type: cell-based
Settings: absorbance 600 nm after 20 hours at 37° C./5% CO2, read-out: IC50 (Inhibitory concentration) against Neisseria gonorrhoeae
Experimental: Actively growing Neisseria gonorrhoeae on GC agar (based on; Spence et. al. (2008): Curr. Protoc. Microbiol. 8:4A.1.1-4A.1.26) plates are harvested and transferred to GC broth (based on; Spence et al (2008): Curr. Protoc. Microbiol. 8:4A.1.1-4A.1.26) to generate a liquid stock. This culture is allowed to establish and grow to mid-log phase (at 37° C./5% CO2), finally this culture is diluted (˜10^5 cells/ml) to generate a seed inoculum to establish plate-based broth assays. EC50 values were determined by assaying growth (absorbance read at 600 nm, after 20 hours at 37° C./5% CO2) of Neisseria gonorrhoeae across a 10-point dilution series of the test compound. The EC50 value is determined from transformed data to identify the concentration of compound giving a 50% response relative to control samples (no compound).

SMILES	IC50
CNCc1nnc(Nc2nc3cc(C(F)(F)F)ccc3o2)o1 [Example 93, N-(5-((Methylamino)methyl)-1,3,4-oxadiazol-2-yl)-5-(trifluoromethyl)benzo[d]oxazol-2-amine]	≤ 10 µM
O=C(c1csc(Nc2nc3cc(C(F)(F)F)ccc3o2)n1)N1CCNCC1 [Example 95, Piperazin-1-yl(2-((5-(trifluoromethyl)benzo[d]oxazol-2-yl)amino)thiazol-4-yl)methanone hydrochloride]	≤ 1 µM
O=C(O)c1csc(Nc2nc3cc(Cl)ccc3o2)n1 [Example 96, 2-((5-Chlorobenzo[d]oxazol-2-yl)amino)thiazole-4-carboxylic acid]	≤ 10 µM
CN(C)CCNC(=O)c1csc(Nc2nc3cc(Cl)ccc3o2)n1 [Example 97, 2-((5-Chlorobenzo[d]oxazol-2-yl)amino)-N-(2-(dimethylamino)ethyl)thiazole-4-carboxamide]	≤ 1 µM
O=C(Nc1ccnc(F)c1)c1csc(Nc2nc3cc(C(F)(F)F)ccc3o2)n1 [Example 98, N-(2-fluoropyridin-4-yl)-2-((5-(trifluoromethyl)benzo[d]oxazol-2-yl)amino)thiazole-4-carboxamide]	≤ 0.1 µM
NC(=O)c1csc(Nc2nc3cc(Cl)ccc3o2)n1 [Example 99, 2-((5-Chlorobenzo[d]oxazol-2-yl)amino)thiazole-4-carboxamide]	≤ 1 µM
FC(F)(F)c1ccc2oc(Nc3nc(Cl)cs3)nc2c1 [Example 100, N-(4-Chlorothiazol-2-yl)-5-(trifluoromethyl)benzo[d]oxazol-2-amine]	≤ 1 µM
NC(=O)c1nnc(Nc2nc3ccc(C(F)(F)F)cc3o2)o1 [Example 102, 5-((6-(Trifluoromethyl)benzo[d]oxazol-2-yl)amino)-1,3,4-oxadiazole-2-carboxamide]	≤ 100 µM
FC(F)(F)c1ccc2oc(Nc3nnc(C4CC4)o3)nc2c1 [Example 103, N-(5-Cyclopropyl-1,3,4-oxadiazol-2-yl)-5-(trifluoromethyl)benzo[d]oxazol-2-amine]	≤ 0.1 µM
Cc1nnc(Nc2nc3ccc(C(F)(F)F)cc3o2)o1 [Example 104, N-(5-Methyl-1,3,4-oxadiazol-2-yl)-6-(trifluoromethyl)benzo[d]oxazol-2-amine]	≤ 0.1 µM
CC(C)c1nnc(Nc2nc3cc(C(F)(F)F)ccc3o2)o1 [Example 108, N-(5-Isopropyl-1,3,4-oxadiazol-2-yl)-5-(trifluoromethyl)benzo[d]oxazol-2-amine]	≤ 1 µM
Cc1nnc(Nc2nc3ccc(Cl)cc3o2)o1 [Example 109, 6-Chloro-N-(5-methyl-1,3,4-oxadiazol-2-yl)benzo[d]oxazol-2-amine]	≤ 0.1 µM
FC(F)(F)c1ccc2oc(Nc3nnc[nH]3)nc2c1 [Example 116, N-(4H-1,2,4-Triazol-3-yl)-5-(trifluoromethyl)benzo[d]oxazol-2-amine]	≤ 1 µM
Cc1nnc(Nc2nc3c(C(F)(F)F)cccc3o2)o1 [Example 118, N-(5-Methyl-1,3,4-oxadiazol-2-yl)-4-(trifluoromethyl)benzo[d]oxazol-2-amine]	≤ 10 µM
Cc1nnc(Nc2nc3cccc(Cl)c3o2)[nH]1 [Example 121, 7-Chloro-N-(5-methyl-4H-1,2,4-triazol-3-yl)benzo[d]oxazol-2-amine]	≤ 0.1 µM
Cc1nnc(Nc2nc3c(Cl)cc(Cl)cc3o2)[nH]1 [Example 123, 4,6-Dichloro-N-(5-methyl-4H-1,2,4-triazol-3-yl)benzo[d]oxazol-2-amine]	≤ 1 µM
Cc1nnc(Nc2nc3c(F)cccc3o2)[nH]1 [Example 124, 4-Fluoro-N-(5-methyl-4H-1,2,4-triazol-3-yl)benzo[d]oxazol-2-amine]	≤ 1 µM
Cc1nnc(Nc2nc3cc(C(F)(F)F)c(Cl)cc3o2)[nH]1 [Example 125, 6-chloro-N-(5-methyl-4H-1,2,4-triazol-3-yl)-5-(trifluoromethyl)benzo[d]oxazol-2-amine]	≤ 0.1 µM
CN1CCC[C@H]1c1nnc(Nc2nc3cc(C(F)(F)F)ccc3o2)o1 [Example 126, (S)-N-(5-(1-Methylpyrrolidin-2-yl)-1,3,4-oxadiazol-2-yl)-5-(trifluoromethyl)benzo[d]oxazol-2-amine]	≤ 1 µM
Clc1cc(Cl)c2nc(Nc3nnc(CN4CCCC4)[nH]3)oc2c1 [Example 129, 4,6-diChloro-N-(5-(pyrrolidin-1-ylmethyl)-4H-1,2,4-triazol-3-yl)benzo[d]oxazol-2-amine]	≤ 1 µM
Clc1cccc2nc(Nc3nnc(CN4CCCC4)[nH]3)oc12 [Example 131, 7-Chloro-N-(5-(pyrrolidin-1-ylmethyl)-4H-1,2,4-triazol-3-yl)benzo[d]oxazol-2-amine]	≤ 1 µM
Clc1ccc2nc(Nc3nnc(CN4CCCC4)[nH]3)oc2c1 [Example 132, 6-Chloro-N-(5-(pyrrolidin-1-ylmethyl)-4H-1,2,4-triazol-3-yl)benzo[d]oxazol-2-amine]	≤ 1 µM
O=C(c1nnc(Nc2nc3c(Cl)cc(Cl)cc3o2)o1)N1CCCC1 [Example 133, (5-((4,6-Dichlorobenzo[d]oxazol-2-yl)amino)-1,3,4-oxadiazol-2-yl)(pyrrolidin-1-yl)methanone]	≤ 1 µM
CN(C)Cc1nnc(Nc2nc3cc(C(F)(F)F)ccc3o2)[nH]1 [Example 136, N-(5-((Dimethylamino)methyl)-4H-1,2,4-triazol-3-yl)-5-(trifluoromethyl)benzo[d]oxazol-2-amine]	≤ 1 µM
FC(F)(F)c1cc2nc(Nc3nnco3)oc2cc1Cl [Example 138, 6-Chloro-N-(1,3,4-oxadiazol-2-yl)-5-(trifluoromethyl)benzo[d]oxazol-2-amine]	≤ 0.1 µM

The remaining lines, values ahead:

IC50	SMILES
≤ 10 µM	CC(=O)N(C)Cc1nnc(Nc2nc3cc(C(F)(F)F)ccc3o2)o1 [Example 94, N-Methyl-N-((5-((5-(trifluoromethyl)benzo[d]oxazol-2-yl)amino)-1,3,4-oxadiazol-2-yl)methyl)acetamide]
≤ 1 µM	NC(=O)c1csc(Nc2nc3ccc(C(F)(F)F)cc3o2)n1 [Example 101, 2-((6-(trifluoromethyl)benzo[d]oxazol-2-yl)amino)thiazole-4-carboxamide]
≤ 100 µM	FC(F)(F)c1ccc2oc(Nc3nnc(C(F)(F)F)o3)nc2c1 [Example 110, 5-(Trifluoromethyl)-N-(5-(trifluoromethyl)-1,3,4-oxadiazol-2-yl)benzo[d]oxazol-2-amine]
≤ 1 µM	Cc1nnc(Nc2nc3cc(C(F)(F)F)ccc3o2)s1 [Example 111, N-(5-Methyl-1,3,4-thiadiazol-2-yl)-5-(trifluoromethyl)benzo[d]oxazol-2-amine]
≤ 1 µM	Cc1cnc(Nc2nc3cc(C(F)(F)F)ccc3o2)o1 [Example 112, N-(5-Methyloxazol-2-yl)-5-(trifluoromethyl)benzo[d]oxazol-2-amine]
≤ 1 µM	Cc1nc(Nc2nc3cc(C(F)(F)F)ccc3o2)oc1C [Example 113, N-(4,5-Dimethyloxazol-2-yl)-5-(trifluoromethyl)benzo[d]oxazol-2-amine]
≤ 1 µM	FC(F)(F)c1ccc2nc(Nc3nnco3)oc2c1 [Example 114, N-(1,3,4-Oxadiazol-2-yl)-6-(trifluoromethyl)benzo[d]oxazol-2-amine]
≤ 1 µM	Clc1ccc2nc(Nc3nnco3)oc2c1 [Example 115, 6-Chloro-N-(1,3,4-oxadiazol-2-yl)benzo[d]oxazol-2-amine]
≤ 1 µM	Cc1nnc(Nc2nc3c(Cl)cccc3o2)o1 [Example 119, 4-Chloro-N-(5-methyl-1,3,4-oxadiazol-2-yl)benzo[d]oxazol-2-amine]
≤ 1 µM	Clc1cccc2oc(Nc3nnco3)nc12 [Example 120, 4-Chloro-N-(1,3,4-oxadiazol-2-yl)benzo[d]oxazol-2-amine]
≤ 10 µM	Cc1nnc(Nc2nc3ccc(Cl)cc3o2)[nH]1 [Example 122, 6-Chloro-N-(5-methyl-4H-1,2,4-triazol-3-yl)benzo[d]oxazol-2-amine]
≤ 1 µM	CN1CCC[C@@H]1c1nnc(Nc2nc3cc(C(F)(F)F)ccc3o2)o1 [Example 127, (R)-N-(5-(1-methylpyrrolidin-2-yl)-1,3,4-oxadiazol-2-yl)-5-(trifluoromethyl)benzo[d]oxazol-2-amine]
≤ 1 µM	FC(F)(F)c1ccc2oc(Nc3nnc(CN4CCCC4)[nH]3)nc2c1 [Example 128, N-(5-(Pyrrolidin-1-ylmethyl)-4H-1,2,4-triazol-3-yl)-5-(trifluoromethyl)benzo[d]oxazol-2-amine]
≤ 10 µM	Clc1cccc2oc(Nc3nnc(CN4CCCC4)[nH]3)nc12 [Example 130, 4-Chloro-N-(5-(pyrrolidin-1-ylmethyl)-4H-1,2,4-triazol-3-yl)benzo[d]oxazol-2-amine]
≤ 10 µM	O=C(c1nnc(Nc2nc3c(Cl)cccc3o2)o1)N1CCCC1 [Example 134, (5-((4-Chlorobenzo[d]oxazol-2-yl)amino)-1,3,4-oxadiazol-2-yl)(pyrrolidin-1-yl)methanone]
≤ 0.1 µM	Clc1ccc2oc(Nc3nnco3)nc2c1 [Example 135, 5-Chloro-N-(1,3,4-oxadiazol-2-yl)benzo[d]oxazol-2-amine]
≤ 0.1 µM	FC(F)(F)c1cc2nc(Nc3nnc(CN4CCCC4)[nH]3)oc2cc1Cl [Example 137, 6-Chloro-N-(5-(pyrrolidin-1-ylmethyl)-4H-1,2,4-triazol-3-yl)-5-(trifluoromethyl)benzo[d]oxazol-2-amine]
≤ 1 µM	CC(C)c1nnc(Nc2nc3cc(C(F)(F)F)c(Cl)cc3o2)[nH]1 [Example 139, 6-Chloro-N-(5-isopropyl-4H-1,2,4-triazol-3-yl)-5-(trifluoromethyl)benzo[d]oxazol-2-amine]

From patent publication US20190194179A1, “ANTIBIOTIC COMPOUNDS” (DISCUVA LTD., priority 2016, published 2019)
